Data reported in patent US9051325B2, “Bicyclic [5,6] imidazo pyrimodone compounds for use in the treatment of diseases or conditions mediated by Lp-PLA2” (GlaxoSmithKline Intellectual Property Development Limited, priority 2013, dated 2015).
Like-named read-outs stand apart in the source and are kept apart here.

How the values were obtained:
Lp-PLA2 in human plasma = target: T1, Lp-PLA2 in human plasma (Homo sapiens, UniProt Q13093); experiment: Lp-PLA2 human plasma assay (Thio-PAF assay); type: biochemical; details: pooled human plasma; lower bounds; read-out: pIC50 values in the thio-PAF assay (converted)
T1 construct: from tissue; host or cells: pooled human plasma
T1 sequence (Q13093 22-441): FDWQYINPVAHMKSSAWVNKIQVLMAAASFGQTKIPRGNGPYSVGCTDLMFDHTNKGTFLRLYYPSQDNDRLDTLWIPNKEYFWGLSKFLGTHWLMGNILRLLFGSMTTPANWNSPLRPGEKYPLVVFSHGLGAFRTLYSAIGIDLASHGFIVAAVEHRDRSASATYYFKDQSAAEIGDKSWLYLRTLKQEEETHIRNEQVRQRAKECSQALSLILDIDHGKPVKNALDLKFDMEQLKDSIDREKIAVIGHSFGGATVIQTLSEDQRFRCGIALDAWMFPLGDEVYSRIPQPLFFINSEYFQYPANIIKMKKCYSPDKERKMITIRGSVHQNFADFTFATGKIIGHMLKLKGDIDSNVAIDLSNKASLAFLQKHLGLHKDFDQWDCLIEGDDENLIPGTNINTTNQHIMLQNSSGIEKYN
In short: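 Pooled human plasma preincubated 30 min with compounds, then given 2-thio-PAF substrate with CPM and NEM in 50 mM HEPES pH 7.4, 150 mM NaCl, 1 mM CHAPS. Reaction quenched after 2 min with TFA and read by fluorescence (ex 380/em 485) after 40 min at room temperature; pIC50 from curve fit.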

[1] = target: T2, recombinant human Lp-PLA2 (Homo sapiens, UniProt Q13093); experiment: Recombinant human Lp-PLA2 assay (rhLp-PLA2, PED6 assay); type: biochemical
T2 sequence (Q13093 22-441): T1 sequence (Q13093 22-441)
In short: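 Compounds were preincubated 30 min with 4 nM […] rhLp-PLA2 in 50 mM HEPES pH 7.4, 150 mM NaCl, 1 mM CHAPS, then PED6 substrate […] was added for 20 min at room temperature in the dark. Fluorescence was read at ex 480/em 540, and pIC50 was fitted from 1:3 serial dilutions.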

[2] = lower bounds, read-out: pIC50 values in the PED6 assay (converted)
[3] = read-out: rhLp-PLA2 (PED6 assay) (pIC50) (converted)

IC50 (Lp-PLA2 in human plasma)	IC50 [1, 2]	IC50 [1, 3]	Structure (SMILES)
≤ 100 nM	≤ 1 nM		CC1(C)Cn2c(cc(OCc3cc(F)c(Oc4ccnc(F)c4)c(F)c3)nc2=O)N1 [Example E116, 7-((3,5-difluoro-4-((2-fluoropyridin-4-yl)oxy)benzyl)oxy)-2,2-dimethyl-2,3-dihydroimidazo[1,2-c]pyrimidin-5(1H)-one]
≤ 100 nM	≤ 1 nM		CC1Cn2c(cc(OCc3ccc(Oc4cc(F)cc(C(F)(F)F)c4)c(F)c3)nc2=O)N1C (centres unmarked) [Example E119, 7-((3-fluoro-4-(3-fluoro-5-(trifluoromethyl)phenoxy)benzyl)oxy)-1,2-dimethyl-2,3-dihydroimidazo[1,2-c]pyrimidin-5(1H)-one]
≤ 100 nM	≤ 10 nM		CC1Cn2c(cc(OCc3ccc(F)c(C#N)c3)nc2=O)N1C (centres unmarked) [Example E121, 5-(((1,2-dimethyl-5-oxo-1,2,3,5-tetrahydroimidazo[1,2-c]pyrimidin-7-yl)oxy)methyl)-2-fluorobenzonitrile]
≤ 100 nM	≤ 1 nM		CN1c2cc(OCc3ccc(F)c(F)c3)nc(=O)n2CC1(C)C [Example E122, 7-((3,4-difluorobenzyl)oxy)-1,2,2-trimethyl-2-dihydroimidazo[1,2-c]pyrimidin-5(1H)-one]
≤ 100 nM	≤ 1 nM		C[C@@H]1Cn2c(cc(OCc3ccc(Oc4cncc(C(F)(F)F)c4)c(C#N)c3)nc2=O)N1C [Example E123, (R)-5-(((1,2-dimethyl-5-oxo-1,2,3,5-tetrahydroimidazo[1,2-c]pyrimidin-7-yl)oxy)methyl)-2-((5-(trifluoromethyl)pyridin-3-yl)oxy)benzonitrile]
≤ 100 nM	≤ 1 nM		CN1c2cc(OCc3cccc(C#N)c3)nc(=O)n2CC1(C)C [Example E124, 3-(((1,2,2-trimethyl-5-oxo-1,2,3,5-tetrahydroimidazo[1,2-c]pyrimidin-7-yl)oxy)methyl)benzonitrile]
≤ 100 nM	≤ 1 nM		CC1(C)Cn2c(cc(OCc3cc(F)c(Oc4ccnc(C(F)(F)F)c4)c(F)c3)nc2=O)N1 [Example E127, 7-((3,5-difluoro-4-((2-(trifluoromethyl)pyridin-4-yl)oxy)benzyl)oxy)-2,2-dimethyl-2,3-dihydroimidazo[1,2-c]pyrimidin-5(1H)-one]
≤ 100 nM	≤ 1 nM		CC1(C)Cn2c(cc(OCc3cc(F)c(Oc4cncc(Cl)c4)c(F)c3)nc2=O)N1 [Example E128, 7-((4-((5-chloropyridin-3-yl)oxy)-3,5-difluorobenzyl)oxy)-2,2-dimethyl-2,3-dihydroimidazo[1,2-c]pyrimidin-5(1H)-one]
≤ 100 nM	≤ 10 nM		CCN1c2cc(OCc3cc(F)cc(F)c3)nc(=O)n2CC1(C)C [Example E129, 7-((3,5-difluorobenzyl)oxy)-1-ethyl-2,2-dimethyl-2,3-dihydroimidazo[1,2-c]pyrimidin-5(1H)-one]
≤ 100 nM	≤ 1 nM		C[C@H]1Cn2c(cc(OCc3cc(F)c(Oc4ccnc(C(F)(F)F)c4)c(F)c3)nc2=O)N1 [Example E131, (S)-7-((3,5-difluoro-4-((2-(trifluoromethyl)pyridin-4-yl)oxy)benzyl)oxy)-2-methyl-2,3-dihydroimidazo[1,2-c]pyrimidin-5(1H)-one]
≤ 100 nM	≤ 1 nM		CC1(C)Cn2c(cc(OCc3cc(F)c(Oc4ccc(Cl)nc4)c(F)c3)nc2=O)N1 [Example E133, 7-((4-((6-chloropyridin-3-yl)oxy)-3,5-difluorobenzyl)oxy)-2,2-dimethyl-2,3-dihydroimidazo[1,2-c]pyrimidin-5(1H)-one]
≤ 100 nM	≤ 1 nM		CC1(C)Cn2c(cc(OCc3cc(F)c(Oc4ccc(F)nc4)c(F)c3)nc2=O)N1 [Example E134, 7-((3,5-difluoro-4-((6-fluoropyridin-3-yl)oxy)benzyl)oxy)-2,2-dimethyl-2,3-dihydroimidazo[1,2-c]pyrimidin-5(1H)-one]
≤ 100 nM	≤ 10 nM		[2H]C1([2H])n2c(cc(OCc3cccc(F)c3F)nc2=O)N(C)C1(C)C [Example E136, 7-((2,3-difluorobenzyl)oxy)-1,2,2-trimethyl-3,3-dideutero-2,3-dihydroimidazo[1,2-c]pyrimidin-5(1H)-one]
≤ 100 nM	≤ 10 nM		[2H]C1([2H])n2c(cc(OCc3cc(F)cc(F)c3)nc2=O)N(C)C1(C)C [Example E137, 7-((3,5-difluorobenzyl)oxy)-1,2,2-trimethyl-3,3-dideutero-2,3-dihydroimidazo[1,2-c]pyrimidin-5(1H)-one]

Further lines, the compound ahead of its results:

Structure (SMILES)	IC50 (Lp-PLA2 in human plasma)	IC50 [1, 2]	IC50 [1, 3]
CC1(C)Cn2c(cc(OCc3cc(F)c(Oc4cnc(C(F)(F)F)nc4)c(F)c3)nc2=O)N1 [Example E100, 7-((3,5-difluoro-4-((2-(trifluoromethyl)pyrimidin-5-yl)oxy)benzyl)oxy)-2,2-dimethyl-2,3-dihydroimidazo[1,2-c]pyrimidin-5(1H)-one]	≤ 100 nM	≤ 1 nM	
CC1(C)Cn2c(cc(OCc3ccc(Oc4cnc(C(F)(F)F)nc4)c(F)c3)nc2=O)N1 [Example E101, 7-((3-fluoro-4-((2-(trifluoromethyl)pyrimidin-5-yl)oxy)benzyl)oxy)-2,2-dimethyl-2,3-dihydroimidazo[1,2-c]pyrimidin-5(1H)-one]	≤ 100 nM	≤ 1 nM	
[2H]C([2H])(Oc1cc2n(c(=O)n1)CC(C)(C)N2CC)c1cccc(F)c1F [Example E102, 7-(dideutero(2,3-difluorobenzyl)oxy)-1-ethyl-2,2-dimethyl-2,3-dihydroimidazo[1,2-c]pyrimidin-5(1H)-one]	≤ 100 nM	≤ 10 nM	
CN1c2cc(OCc3cccc(F)c3F)nc(=O)n2CC1(C)C [Example E103, 7-((2,3-difluorobenzyl)oxy)-1,2,2-trimethyl-2,3-dihydroimidazo[1,2-c]pyrimidin-5(1H)-one]	≤ 100 nM	≤ 10 nM	
[2H]C([2H])([2H])N1c2cc(OCc3cccc(F)c3F)nc(=O)n2CC1(C)C [Example E104, 7-((2,3-difluorobenzyl)oxy)-1-trideuteromethyl-2,2-dimethyl-2,3-dihydroimidazo[1,2-c]pyrimidin-5(1H)-one]	≤ 100 nM	≤ 10 nM	
[2H]C([2H])(Oc1cc2n(c(=O)n1)CC(C)(C)N2C(C)C)c1cccc(F)c1F [Example E105, 7-(dideutero(2,3-difluorobenzyl)oxy)-1-isopropyl-2,2-dimethyl-2,3-dihydroimidazo-[1,2-c]pyrimidin-5(1H)-one]	≤ 100 nM	≤ 1 nM	0.631 nM
C[C@@H]1Cn2c(cc(OCc3ccc(F)c(F)c3)nc2=O)N1C [Example E106, (R)-7-((3,4-difluorobenzyl)oxy)-1,2-dimethyl-2,3-dihydroimidazo[1,2-c]pyrimidin-5(1H)-one]	≤ 100 nM	≤ 10 nM	
C[C@@H]1Cn2c(cc(OCc3ccc(Oc4ccc(C(F)(F)F)nc4)c(F)c3)nc2=O)N1C [Example E107, (R)-7-((3-fluoro-4-((6-(trifluoromethyl)pyridin-3-yl)oxy)benzyl)oxy)-1,2-dimethyl-2,3-dihydroimidazo[1,2-c]pyrimidin-5(1H)-one]	≤ 100 nM	≤ 1 nM	
C[C@H]1Cn2c(cc(OCc3cc(F)c(F)c(F)c3)nc2=O)N1C [Example E108, (S)-1,2-dimethyl-7-((3,4,5-trifluorobenzyl)oxy)-2,3-dihydroimidazo[1,2-c]pyrimidin-5(1H)-one]	≤ 100 nM	≤ 10 nM	
CN1c2cc(OCc3cc(F)c(F)c(F)c3)nc(=O)n2CC1(C)C [Example E110, 1,2,2-trimethyl-7-((3,4,5-trifluorobenzyl)oxy)-2,3-dihydroimidazo[1,2-c]pyrimidin-5(1H)-one]	≤ 100 nM	≤ 10 nM	
CN1c2cc(OCc3ccc(Oc4ccc(C(F)(F)F)nc4)c(F)c3)nc(=O)n2CC1(C)C [Example E112, 7-((3-fluoro-4-((6-(trifluoromethyl)pyridin-3-yl)oxy)benzyl)oxy)-1,2,2-trimethyl-2,3-dihydroimidazo[1,2-c]pyrimidin-5(1H)-one]	≤ 100 nM	≤ 1 nM	
CN1c2cc(OCc3cc(F)c(Oc4cncc(Cl)c4)c(F)c3)nc(=O)n2CC1(C)C [Example E113, 7-((4-((5-chloropyridin-3-yl)oxy)-3,5-difluorobenzyl)oxy)-1,2,2-trimethyl-2,3-dihydroimidazo[1,2-c]pyrimidin-5(1H)-one]	≤ 100 nM	≤ 1 nM	
CN1c2cc(OCc3cc(F)cc(F)c3)nc(=O)n2CC1(C)C [Example E114, 7-((3,5-difluorobenzyl)oxy)-1,2,2-trimethyl-2,3-dihydroimidazo[1,2-c]pyrimidin-5(1H)-one]	≤ 100 nM	≤ 1 nM	0.794 nM
